Ki and EC50 data for 15 molecules are collected here from patent US9951064B2, “Azaindazole compounds as inhibitors of T790M containing EGFR mutants” (Genentech, Inc., priority 2013, dated 2018).

The target in one assay is T1, EGFR del746-750 T790M (Homo sapiens, UniProt P00533, DEL746-750/T790M).
T1 construct: purchased Carna Biosciences 08-528
Kind of assay: EGFR del746-750 T790M biochemical assay (Caliper mobility shift). The note with it: 5 μM ATP; apparent Ki (Morrison fit) converted by Cheng-Prusoff, Km of ATP 2.1 μM; read-out: EGFR(T790M/d746-750) Ki. The essentials: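 Caliper mobility-shift read-out, with product electrophoretically resolved from substrate and measured. Reactions were quenched with 80 mM EDTA after 30 min at 22 °C.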

Assay [1] relates to H1975 (EGFR T790M/L858R) cell proliferation. The experiment in a line: H1975 proliferation assay (Cell Titer-Glo). The note with it: Homo sapiens, NCI-H1975, 72 h, NCI-H1975 cells, 72 hour incubation, read-out: H1975 antiproliferative EC50. Format: cell-based. As to the method: H1975 Proliferation Assays
All cell culture reagents were purchased from Invitrogen/Gibco. Cells are cultured at 37° C. at 5% CO2 and split as recommended by ATCC.
Background: Cellular ATP, detected with luciferase, serves as a proxy for viable cell number.

The next assay deals with T2, EGFR T790M L858R (Homo sapiens, UniProt P00533, L858R/T790M).
T2 construct: purchased Life Technologies PV4879
The experiment in a line: EGFR T790M L858R biochemical assay (Caliper mobility shift). The note with it: 5 μM ATP; apparent Ki (Morrison fit) converted by Cheng-Prusoff, Km of ATP 1.3 μM. The essentials:
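Caliper mobility-shift read-out, electrophoretic separation of substrate from product, after a 30-minute kinase reaction at 22 °C. EDTA at 80 mM terminates each reaction.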

Assay [2] has as its target T3, phosphor-EGFR in H1975(L585R/T790M) mutant EGFR expressing cells (Homo sapiens, UniProt P00533, L858R/T790M).
T3 construct: host or cells: NCI-H1975
Kind of assay: H1975 pEGFR MSD cellular assay. The assay is classed as cell-based. The note with it: NCI-H1975 cells, serum starved, 1 hour compound incubation, pEGFR Tyr1068 MSD; read-out: HI975 pEGFR EC50. The method, boiled down: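 Phospho-EGFR read by MSD electrochemiluminescence: capture with anti-pEGFR antibody (overnight, 4° C), detection with SULFO-TAG anti-total EGFR (1 hour, room temperature). Before lysis, H1975 cells starved of serum overnight got compound for 1 hour at 37° C, 0.5% DMSO final. EC50 via four-parameter logistic regression of percent inhibition.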

T1 sequence (P00533 with tags, fused parts or gaps DEL746-750/T790M limits assumed): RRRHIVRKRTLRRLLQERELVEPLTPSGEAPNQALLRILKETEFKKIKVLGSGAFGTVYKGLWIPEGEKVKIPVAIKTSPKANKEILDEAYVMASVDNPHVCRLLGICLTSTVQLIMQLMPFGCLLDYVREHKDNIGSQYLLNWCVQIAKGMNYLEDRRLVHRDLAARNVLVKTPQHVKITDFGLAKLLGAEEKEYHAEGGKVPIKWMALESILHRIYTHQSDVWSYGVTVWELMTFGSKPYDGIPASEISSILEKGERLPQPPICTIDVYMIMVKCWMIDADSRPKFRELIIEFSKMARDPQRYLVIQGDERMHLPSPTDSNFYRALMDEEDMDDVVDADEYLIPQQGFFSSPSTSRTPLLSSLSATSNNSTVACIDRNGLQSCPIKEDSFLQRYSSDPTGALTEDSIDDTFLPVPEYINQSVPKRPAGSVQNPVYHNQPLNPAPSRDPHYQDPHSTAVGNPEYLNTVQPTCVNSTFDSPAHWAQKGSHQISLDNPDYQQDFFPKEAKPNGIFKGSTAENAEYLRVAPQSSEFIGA
T2 sequence (P00533 25-1210 T790M/L858R): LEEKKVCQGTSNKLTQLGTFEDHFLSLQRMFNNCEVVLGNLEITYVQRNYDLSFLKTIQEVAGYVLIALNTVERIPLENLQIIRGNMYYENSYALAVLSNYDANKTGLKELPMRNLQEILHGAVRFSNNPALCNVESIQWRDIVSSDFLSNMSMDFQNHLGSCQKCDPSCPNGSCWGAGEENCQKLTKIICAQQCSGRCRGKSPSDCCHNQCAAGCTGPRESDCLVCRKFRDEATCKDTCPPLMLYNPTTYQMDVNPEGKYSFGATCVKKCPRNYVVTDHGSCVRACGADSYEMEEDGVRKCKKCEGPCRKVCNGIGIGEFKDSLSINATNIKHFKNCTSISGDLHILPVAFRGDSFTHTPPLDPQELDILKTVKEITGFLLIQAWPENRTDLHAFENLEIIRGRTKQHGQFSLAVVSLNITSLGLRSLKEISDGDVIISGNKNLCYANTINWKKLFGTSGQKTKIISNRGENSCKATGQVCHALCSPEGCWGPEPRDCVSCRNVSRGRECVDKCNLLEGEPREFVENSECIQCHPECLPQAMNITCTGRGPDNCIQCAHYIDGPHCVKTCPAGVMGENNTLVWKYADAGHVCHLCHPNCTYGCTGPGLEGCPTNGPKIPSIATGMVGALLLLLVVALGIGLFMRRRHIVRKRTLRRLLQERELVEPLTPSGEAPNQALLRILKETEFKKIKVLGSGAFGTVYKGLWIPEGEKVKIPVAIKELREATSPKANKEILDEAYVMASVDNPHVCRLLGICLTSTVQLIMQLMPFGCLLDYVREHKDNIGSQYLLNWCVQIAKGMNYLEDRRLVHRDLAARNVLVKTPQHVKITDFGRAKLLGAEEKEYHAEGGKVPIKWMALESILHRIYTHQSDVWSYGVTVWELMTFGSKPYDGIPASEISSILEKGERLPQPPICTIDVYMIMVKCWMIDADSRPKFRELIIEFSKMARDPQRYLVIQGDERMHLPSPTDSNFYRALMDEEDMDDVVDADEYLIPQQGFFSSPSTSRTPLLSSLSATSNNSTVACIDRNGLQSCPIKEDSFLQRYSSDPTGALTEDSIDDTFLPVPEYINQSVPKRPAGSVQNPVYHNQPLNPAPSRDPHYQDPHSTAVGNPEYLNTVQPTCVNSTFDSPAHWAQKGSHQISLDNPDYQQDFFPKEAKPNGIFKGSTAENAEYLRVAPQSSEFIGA
T3 sequence (P00533 25-1210 T790M/L858R): as above

As a reminder, the EC50 is the concentration needed to bring the measured effect to its halfway point. Regarding `CC(C)n1nc(N2CC(O)C(F)(F)C2)c2cnc(Nc3ccnc(N4CCC(C)(O)CC4)n3)cc21` (stereo not drawn) [Example 85, 1-(4-(3-(3,3-Difluoro-4-hydroxypyrrolidin-1-yl)-1-isopropyl-1H-pyrazolo[4,3-c]pyridin-6-ylamino)pyrimidin-2-yl)-4-methylpiperidin-4-ol], the Ki on EGFR del746-750 T790M is 15.5 nM; on EGFR T790M L858R, 5.5 nM. Besides, the EC50 was 1330 nM in assay [1] and 308 nM in assay [2].

`CC(C)n1nc(N2CC(N)CC2=O)c2cnc(Nc3ccnc(N4CCC(C)(O)CC4)n3)cc21` (stereo not drawn) [Example 86, 4-Amino-1-(6-(2-(4-hydroxy-4-methylpiperidin-1-yl)pyrimidin-4-ylamino)-1-isopropyl-1H-pyrazolo[4,3-c]pyridin-3-yl)pyrrolidin-2-one]: the Ki on EGFR del746-750 T790M turned out to be 29.1 nM; on EGFR T790M L858R, 13.3 nM. The EC50 is more than 10000 nM in assay [1] and 1940 nM in assay [2].

Regarding `CC(n1nc(N2CC3(COC3)C2)c2cnc(Nc3ccnc(N4CCC(C)(O)CC4)n3)cc21)C(F)(F)F` (stereo not drawn) [Example 87, 4-Methyl-1-[4-[(3-[2-oxa-6-azaspiro[3.3]heptan-6-yl]-1-(1,1,1-trifluoropropan-2-yl)-1H-pyrazolo[4,3-c]pyridin-6-yl)amino]pyrimidin-2-yl]piperidin-4-ol], the Ki on EGFR del746-750 T790M came out at 11.4 nM; on EGFR T790M L858R, 6.4 nM. For the same molecule, the EC50 in assay [1] amounted to 3290 nM; in assay [2] it was 472 nM.

In the case of `CCC(C)n1nc(N2CCS(=N)(=O)CC2)c2cnc(Nc3ccnc(N4CCC(C)(O)CC4)n3)cc21` (stereo not drawn) [Example 89, 4-[1-(sec-Butyl)-6-[[2-(4-hydroxy-4-methylpiperidin-1-yl)pyrimidin-4-yl]amino]-1H-pyrazolo[4,3-c]pyridin-3-yl]-1-imino-4-thiomorpholin-1-one], the Ki on EGFR del746-750 T790M is 46.9 nM; at EGFR T790M L858R, 26.5 nM. In addition, the EC50 was 9980 nM in assay [1] and 5260 nM in assay [2].

Regarding `CCC(C)n1nc(N2CCNC(=O)C2)c2cnc(Nc3ccnc(N4CCC(C)(O)CC4)n3)cc21` (stereo not drawn) [Example 92, 4-(1-sec-Butyl-6-(2-(4-hydroxy-4-methylpiperidin-1-yl)pyrimidin-4-ylamino)-1H-pyrazolo[4,3-c]pyridin-3-yl)piperazin-2-one], the results for the Ki on EGFR del746-750 T790M and on EGFR T790M L858R were 9.5 nM and 3.8 nM, respectively. Moreover, the figures for the 50% effective concentration (EC50) in assay [1] and in assay [2] were 1760 nM and 788 nM, respectively.

Regarding `CC[C@@H](C)n1nc(N2CC3(COC3)C2)c2cnc(Nc3ccnc(OCC(C)(C)S(C)(=O)=O)n3)cc21` [Example 96, [1-((R)-sec-Butyl)-3-(2-oxa-6-azaspiro[3.3]hept-6-yl)-1H-pyrazolo[4,3-c]pyridin-6-yl]-[2-(2-methanesulfonyl-2-methylpropoxy)pyrimidin-4-yl]amine], the Ki at EGFR del746-750 T790M was 17.2 nM; on EGFR T790M L858R, 4.6 nM. The EC50 in assay [1] is 1240 nM; in assay [2], 387 nM.

For `CC(C)n1nc(N2CCOCC2)c2cnc(Nc3ccnc(NCC(C)(C)S(C)(=O)=O)n3)cc21` [Example 100, N^4-(1-Isopropyl-3-morpholin-4-yl-1H-pyrazolo[4,3-c]pyridin-6-yl)-N^2-(2-methanesulfonyl-2-methylpropyl)pyrimidine-2,4-diamine], the Ki was 7.2 nM on EGFR del746-750 T790M and 8.7 nM on EGFR T790M L858R. Besides, the half-maximal effective concentration (EC50) was determined as 1260 nM in assay [1] and 1060 nM in assay [2].

Take `CC(C)n1nc(N2CCCC2=O)c2cnc(Nc3ccnc(-c4cnn(S(=O)(=O)C5CC5)c4)n3)cc21` [Example 106, 1-(6-(2-(1-(Cyclopropylsulfonyl)-1H-pyrazol-4-yl)pyrimidin-4-ylamino)-1-isopropyl-1H-pyrazolo[4,3-c]pyridin-3-yl)pyrrolidin-2-one]: the values for the Ki on EGFR del746-750 T790M and at EGFR T790M L858R were 1.6 nM and 2.1 nM, respectively. Moreover, the EC50 in assay [1] was 232 nM; in assay [2] it was 57.8 nM.

Regarding `CC(C)n1nc(NC2CCS(=O)(=O)C2)c2cnc(Nc3ccnc(-c4cnn(S(=O)(=O)C5CC5)c4)n3)cc21` (stereo not drawn) [Example 107, 3-((6-((2-(1-(Cyclopropylsulfonyl)-1H-pyrazol-4-yl)pyrimidin-4-yl)amino)-1-isopropyl-1H-pyrazolo[4,3-c]pyridin-3-yl)amino)tetrahydrothiophene 1,1-dioxide], the Ki at EGFR del746-750 T790M turned out to be 1.5 nM; on EGFR T790M L858R it was 2 nM. The EC50 stood at 1640 nM in assay [1] and 386 nM in assay [2].

Turning to `CC1CN(c2nn(C(C)C)c3cc(Nc4ccnc(-c5cnn(S(=O)(=O)C6CC6)c5)n4)ncc23)C(=O)N1` (stereo not drawn) [Example 108, 1-(6-(2-(1-(Cyclopropylsulfonyl)-1H-pyrazol-4-yl)pyrimidin-4-ylamino)-1-isopropyl-1H-pyrazolo[4,3-c]pyridin-3-yl)-4-methylimidazolidin-2-one], the Ki on EGFR del746-750 T790M was 1.7 nM; at EGFR T790M L858R, 1.9 nM. The concentration for a half-maximal effect (EC50) in assay [1] was 377 nM; in assay [2], 113 nM.

Consider `CC(Nc1nn(C(C)C)c2cc(Nc3ccnc(-c4cnn(S(=O)(=O)C5CC5)c4)n3)ncc12)C(N)=O` (stereo not drawn) [Example 109, 2-(6-(2-(1-(Cyclopropylsulfonyl)-1H-pyrazol-4-yl)pyrimidin-4-ylamino)-1-isopropyl-1H-pyrazolo[4,3-c]pyridin-3-ylamino)propanamide], for which the Ki on EGFR del746-750 T790M is 1.3 nM; on EGFR T790M L858R, 1.8 nM. In addition, the half-maximal effective concentration (EC50) in assay [1] amounted to 4620 nM; in assay [2], 788 nM.

Take `CC(C)n1nc(N2CC[S+]([O-])CC2)c2cnc(Nc3ccnc(-c4cnn(S(=O)(=O)C5CC5)c4)n3)cc21` [Example 110, 4-(6-((2-(1-(Cyclopropylsulfonyl)-1H-pyrazol-4-yl)pyrimidin-4-yl)amino)-1-isopropyl-1H-pyrazolo[4,3-c]pyridin-3-yl)thiomorpholine 1-oxide]: the Ki was determined as 1.1 nM on EGFR del746-750 T790M and 1.7 nM on EGFR T790M L858R. Besides, the EC50 in assay [1] came to 835 nM; in assay [2], 162 nM.

Turning to `CC(C)n1nc(N2CCS(=N)(=O)CC2)c2cnc(Nc3ccnc(-c4cnn(S(=O)(=O)C5CC5)c4)n3)cc21` [Example 111, 4-(6-((2-(1-(Cyclopropylsulfonyl)-1H-pyrazol-4-yl)pyrimidin-4-yl)amino)-1-isopropyl-1H-pyrazolo[4,3-c]pyridin-3-yl)-1-iminothiomorpholine 1-oxide], the results for the Ki on EGFR del746-750 T790M and at EGFR T790M L858R were 1 nM and 1.7 nM, respectively. Besides, the EC50 in assay [1] is 949 nM; in assay [2] it was 560 nM.

In the case of `CC(C)n1nc(N2CCC3(CCNC3=O)C2)c2cnc(Nc3ccnc(-c4cnn(S(=O)(=O)C5CC5)c4)n3)cc21` (stereo not drawn) [Example 112, 7-(6-((2-(1-(Cyclopropylsulfonyl)-1H-pyrazol-4-yl)pyrimidin-4-yl)amino)-1-isopropyl-1H-pyrazolo[4,3-c]pyridin-3-yl)-2,7-diazaspiro[4.4]nonan-1-one], the figures for the Ki on EGFR del746-750 T790M and on EGFR T790M L858R were 1 nM and 1.1 nM, respectively. The EC50 in assay [1] was determined as 740 nM; in assay [2] it was 62.6 nM.

For `CC(O)C1CN(c2nn(C(C)C)c3cc(Nc4ccnc(-c5cnn(S(=O)(=O)C6CC6)c5)n4)ncc23)C1` (stereo not drawn) [Example 113, 1-(1-(6-(2-(1-(Cyclopropylsulfonyl)-1H-pyrazol-4-yl)pyrimidin-4-ylamino)-1-isopropyl-1H-pyrazolo[4,3-c]pyridin-3-yl)azetidin-3-yl)ethanol], the Ki at EGFR del746-750 T790M worked out at 0.5 nM; at EGFR T790M L858R it was 0.6 nM. Moreover, the values for the EC50 in assay [1] and in assay [2] were 266 nM and 27.6 nM, respectively.
